Assays:
[1] = system: bone resorption; details: Sato et al., J. Cell Biol. 1990; cited from earlier work
[2] = system: bone resorption; details: rat; Fisher et al., Endocrinology 1993; cited from earlier work
[3] = system: osteoclasts; details: Sato et al. 1990 (echistatin); Bertolini et al. (cyclic peptide); cited from earlier work
[4] = target: T1, αvβ3 (vitronectin receptor) (Homo sapiens, UniProt P05106+P06756); assay: Solid-phase [3H]-SK&F-107260 binding to αvβ3 (inhibition of vitronectin binding); details: [3H]-SK&F-107260 as ligand, 5.0 nM; human placenta or platelet αvβ3
T1 construct: Human placenta or human platelet αvβ3; from tissue; host or cells: human placenta or human platelets
T1 sequence (P06756 31-889 limits assumed): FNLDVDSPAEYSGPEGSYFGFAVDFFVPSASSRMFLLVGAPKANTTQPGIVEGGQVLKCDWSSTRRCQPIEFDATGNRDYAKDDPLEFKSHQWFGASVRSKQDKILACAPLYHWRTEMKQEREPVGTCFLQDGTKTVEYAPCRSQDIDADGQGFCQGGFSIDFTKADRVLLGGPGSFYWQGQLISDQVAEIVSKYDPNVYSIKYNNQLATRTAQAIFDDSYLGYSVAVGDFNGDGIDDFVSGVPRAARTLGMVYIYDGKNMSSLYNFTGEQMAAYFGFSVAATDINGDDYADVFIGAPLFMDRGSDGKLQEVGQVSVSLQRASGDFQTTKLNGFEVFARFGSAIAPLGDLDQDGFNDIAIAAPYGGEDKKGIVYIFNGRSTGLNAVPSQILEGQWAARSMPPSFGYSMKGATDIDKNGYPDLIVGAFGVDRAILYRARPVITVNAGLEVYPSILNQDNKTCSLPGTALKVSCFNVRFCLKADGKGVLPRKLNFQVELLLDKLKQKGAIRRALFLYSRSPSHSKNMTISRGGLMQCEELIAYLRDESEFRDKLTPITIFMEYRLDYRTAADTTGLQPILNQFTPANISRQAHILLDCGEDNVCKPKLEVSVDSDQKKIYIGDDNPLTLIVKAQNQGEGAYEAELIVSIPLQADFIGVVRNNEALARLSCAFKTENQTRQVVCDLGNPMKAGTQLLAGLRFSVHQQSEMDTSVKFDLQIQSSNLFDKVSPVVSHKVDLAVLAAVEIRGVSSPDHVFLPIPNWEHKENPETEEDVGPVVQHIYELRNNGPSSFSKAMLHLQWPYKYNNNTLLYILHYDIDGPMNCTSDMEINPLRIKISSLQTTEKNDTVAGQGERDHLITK
T1 sequence (P06756 891-1048 partner limits assumed): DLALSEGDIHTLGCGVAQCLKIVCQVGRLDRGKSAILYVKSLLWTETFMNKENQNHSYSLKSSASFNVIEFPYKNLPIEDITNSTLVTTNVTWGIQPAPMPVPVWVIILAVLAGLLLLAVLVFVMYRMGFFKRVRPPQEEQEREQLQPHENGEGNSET
T1 sequence (P05106 27-788): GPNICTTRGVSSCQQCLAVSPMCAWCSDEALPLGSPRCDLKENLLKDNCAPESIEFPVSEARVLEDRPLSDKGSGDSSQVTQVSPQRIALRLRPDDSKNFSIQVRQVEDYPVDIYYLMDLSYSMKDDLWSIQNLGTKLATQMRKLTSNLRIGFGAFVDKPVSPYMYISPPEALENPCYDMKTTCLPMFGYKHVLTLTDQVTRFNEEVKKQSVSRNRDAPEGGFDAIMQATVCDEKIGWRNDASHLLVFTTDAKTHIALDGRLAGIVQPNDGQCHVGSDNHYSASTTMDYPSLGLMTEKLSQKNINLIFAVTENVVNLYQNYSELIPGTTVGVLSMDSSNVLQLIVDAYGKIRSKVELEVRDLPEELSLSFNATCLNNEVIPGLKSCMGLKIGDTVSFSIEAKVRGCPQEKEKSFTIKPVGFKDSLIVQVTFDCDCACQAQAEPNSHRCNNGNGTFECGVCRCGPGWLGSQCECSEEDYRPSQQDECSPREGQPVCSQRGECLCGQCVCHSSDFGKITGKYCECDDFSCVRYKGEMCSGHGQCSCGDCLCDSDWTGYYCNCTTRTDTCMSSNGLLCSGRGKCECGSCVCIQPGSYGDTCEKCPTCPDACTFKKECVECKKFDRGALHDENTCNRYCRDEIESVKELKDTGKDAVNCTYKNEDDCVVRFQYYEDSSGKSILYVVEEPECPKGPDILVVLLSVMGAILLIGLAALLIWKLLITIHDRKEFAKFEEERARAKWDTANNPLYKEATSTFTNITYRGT
Experimental: Solid-Phase [^3 H]-SK&F-107260 Binding to αvβ3 : Human placenta or human platelet αvβ3 (0.1-0.3 mg/mL) in buffer T (containing 2 mM CaCl2 and 1% octylglucoside) was diluted with buffer T containing 1 mM CaCl2, 1 mM MnCl2, 1 mM MgCl2 (buffer A) and 0.05% NaN3, and then immediately added to 96-well ELISA plates (Corning, New York, N.Y.) at 0.1 mL per well. 0.1-0.2 ,g of αvβ3 was added per well. The plates were incubated overnight at 4° C. At the time of the experiment, the wells were washed once with buffer A and were incubated with 0.1 mL of 3.5% bovine serum albumin in the same buffer for 1 hr at room temperature. Following incubation the wells were aspirated completely and washed twice with 0.2 mL buffer A. […]
The plates were incubated for 1 hr at room temperature. […] The receptors were solubilized with 0.1 mL of 1% SDS and the bound [^3 H]-SK&F-107260 was determined by liquid scintillation counting with the addition of 3 mL Ready Safe in a Beckman LS Liquid Scintillation Counter, with 40% efficiency. Nonspecific binding of [^3 H]-SK&F-107260 was determined in the presence of 2 LM SK&F-107260 and was consistently less than 1% of total radioligand input. […] The Ki (dissociation constant of the antagonist) was calculated according to the equation: Ki =IC50 /(1+L/Kd), where L and Kd were the concentration and the dissociation constant of [^3 H]-SK&F-107260, respectively.

Ki [4] | Molecule | inhibition of bone resorption in tissue culture [1] | inhibition of bone resorption in vivo [2] | inhibition of attachment of osteoclasts to bone [3]
– | echistatin | potent inhibitor of bone resorption in tissue culture | inhibits bone resorption in vivo in the rat | inhibits attachment of osteoclasts to bone
~23 nM | O=C(O)CC1Cc2ccc(OCCCNc3ccccn3)cc2CCC1=O (racemic) [(±)-2-(2-Pyridylamino)propoxy-6,7,8,9-tetrahydro-7-oxo-5H-benzocycloheptenyl-6-acetic acid] | – | – | –
– | cylco-S,S-N^α -acetyl-cysteinyl-N^α -methyl-argininyl-glycyl-aspartyl-penicillamine | – | – | inhibits osteoclast attachment to bone

Source: patent publication US6239138A, “Vitronectin receptor antagonist” (SmithKline Beecham Corporation, priority 1999, dated 2001)
